Assay results taken from patent publication US20100041590A1, “Compounds” (priority 2006, published 2010).
Where a name gives a salt, the structure may show the parent alone.

target: T1, SCD (SCD-containing rat microsomes) (Rattus norvegicus, UniProt P07308); test: in vitro assay for SCD activity based on production of [3H]H2O from [9,10-3H] stearoyl Coenzyme A; format: biochemical; settings: SCD-containing rat microsomes (2 μg protein), substrate 1 μM, 6 min incubation, 5 min preincubation with compound; read-out: average pIC50 value, in vitro assay for SCD activity (converted)
T1 construct: SCD-containing rat microsomes (2 μg protein); from tissue
T1 sequence (P07308 1-358): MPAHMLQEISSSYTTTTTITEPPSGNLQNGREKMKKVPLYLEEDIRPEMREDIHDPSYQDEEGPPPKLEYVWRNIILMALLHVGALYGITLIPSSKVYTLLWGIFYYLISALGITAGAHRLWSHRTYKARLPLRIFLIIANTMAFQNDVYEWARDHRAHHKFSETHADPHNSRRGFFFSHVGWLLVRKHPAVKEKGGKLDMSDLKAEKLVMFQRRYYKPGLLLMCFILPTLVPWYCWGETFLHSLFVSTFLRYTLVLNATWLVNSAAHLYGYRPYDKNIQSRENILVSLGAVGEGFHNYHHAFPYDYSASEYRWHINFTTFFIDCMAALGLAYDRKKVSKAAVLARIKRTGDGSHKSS
Procedure: The compounds of the present invention may be analysed in vitro for SCD activity using an assay based on the production of [^3H]H2O, which is released during the enzyme-catalyzed generation of the monounsaturated fatty acyl CoA product. The assay is performed in a 96-well filtration plates. The titrated substrate used in the assay is the [9,10-^3H] stearoyl Coenzyme A. After incubation for 6 minutes of SCD-containing rat microsomes (2 μg protein) and substrate (1 μM), the labelled fatty acid acyl-CoA species and microsomes are absorbed with charcoal and separated from [^3H]H2O by centrifugation. The formation of [^3H]H2O is used as a measure of SCD activity. Compounds at concentrations starting at 10 μM to 0.1 nM or vehicle (DMSO) are preincubated for 5 minutes with the microsomes before addition of the substrate. The concentration-responses are fitted with sigmoidal curves to obtain IC50 values.

| IC50 | SMILES |
| --- | --- |
| > 10 µM | CC(C)COc1ccc(Cl)cc1Cn1nc(C(=O)Nc2ccc3c(c2)CCNC3)cc1C1CC1 [1-({5-chloro-2-[(2-methylpropyl)oxy]phenyl}methyl)-5-cyclopropyl-N-(1,2,3,4-tetrahydro-6-isoquinolinyl)-1H-pyrazole-3-carboxamide hydrochloride] |
| < 3.16 µM | CCc1cc(NC(=O)c2ccc3c(c2)CCNC3)nn1Cc1cc(Cl)ccc1OCC(C)C [Example 1, N-[1-({5-chloro-2-[(2-methylpropyl)oxy]phenyl}methyl)-5-ethyl-1H-pyrazol-3-yl]-1,2,3,4-tetrahydro-6-isoquinolinecarboxamide hydrochloride] |
| < 3.16 µM | CC(C)COc1ccc(Cl)cc1Cn1nc(NC(=O)c2ccc3c(c2)CCNC3)cc1C1CC1 [Example 2, N-[1-({5-chloro-2-[(2-methylpropyl)oxy]phenyl}methyl)-5-cyclopropyl-1H-pyrazol-3-yl]-1,2,3,4-tetrahydro-6-isoquinolinecarboxamide hydrochloride] |
| 3.16 to 10 µM | CCCc1cc(C(=O)Nc2ccc3c(c2)CCNC3)nn1Cc1cc(Cl)ccc1OCC(C)C [1-({5-chloro-2-[(2-methylpropyl)oxy]phenyl}methyl)-5-propyl-N-(1,2,3,4-tetrahydro-6-isoquinolinyl)-1H-pyrazole-3-carboxamide hydrochloride] |
